The values that follow come from a melting point compilation (Tetko et al.; mined from patent text by program, amines drawn as free bases though some values may be those of a salt).

What is called melting point is the temperature of the solid-liquid transition. As to `CCN1C(=O)C(C)(C)C(=O)N(C)c2cc(CN(CCn3cc(C)c4occc4c3=O)Cc3cncn3C)ccc21`, the melting point lay within 100 to 105 °C.
Take `CN(C)CCNC(=O)Cn1c(-c2cccc(Cl)c2)nc2cccnc21`: the melting point fell in the range of 124 to 125 °C.
`COc1ccccc1C(Cn1ccnc1)S(=O)c1ccc(C(=O)O)cc1` (centres undefined) displayed a melting point of 157 to 159 °C.
`O=C(O)c1cccc(C=CC(=O)N2CCc3c([nH]c4ccccc34)C2c2ccc3c(c2)OCO3)c1` (centres undefined) gave a melting point of 156 to 158 °C.
For `CCC(CN1CCCCC1)C(=O)c1cc(-c2ccccc2)no1` (centres undefined), the melting point lay in the range of 83 to 84 °C.
In turn, `CCOCCOc1c(Cl)c(Sc2ccccc2N)c(OCCOCC)c2c1C(=N)NC2=N` came in with a melting point of 114 to 116 °C.
The same measure for `CSc1nc(Cl)c(I)c(C(F)(F)F)n1`: 55 to 56 °C.
In turn, `CCOc1cc2c(cc1OCC)C1(CCC(C(=O)O)(C(=O)O)CC1)N(C(=O)OCc1ccccc1)CC2` returned a melting point of 175 to 176 °C.
In the case of `O=C(CCN1CCN(c2ccccc2)CC1)Nc1ccc(O)cc1`, the melting point lay in the range of 172 to 174 °C.
`CC(C(=O)NCCN(C)C)c1ccc(-c2cn3ccccc3n2)cc1` (centres undefined) had a melting point of 149 to 150 °C.
The same measure for `NC(=S)Nc1nncs1`: 253 °C.
In turn, `Cc1c2c(c(Cc3ccc(C(C)C)cc3)c(C)c1NCc1ccccc1)OCC2` displayed a melting point of 115 to 116 °C.
`COc1ccccc1CN1CN2CCCC1C2c1ccccc1` (centres undefined): the melting point was 105 to 107 °C.
For `C=Cc1cc(O)cc2nc(-c3ccc(O)c(F)c3)oc12`, the melting point fell in the range of 249 to 251 °C.
Take `Cc1c(F)c(F)cc2c(=O)c(C(=O)O)cn(-c3nc(N)c(F)cc3F)c12`: the melting point lay within 274 to 277 °C.
`CNc1ncnc2c1ncn2C1OC(CO)C(O)C1F` (centres undefined) came in with a melting point of 140 °C.
The molecule `N#Cc1ccc(ON=C2CCCC(C(=O)O)C2)cc1` (centres undefined) showed a melting point of 153 to 154 °C.
On to `O=C(N[C@H]1CC[C@H](CCN2CCN(c3nccc4c3OCC4)CC2)CC1)c1ccc(F)cc1`, for which the melting point worked out at 236 °C.
Regarding `COc1cc(/C=C/C=C/CO)ccc1OCc1nc(-c2ccccc2)oc1C`, the melting point lay within 149 to 151 °C.
`COc1nc2c(c(OC)n1)C(c1cc(OC)c(OC)c(OC)c1)C1=C(COC1=O)N2` (centres undefined): the melting point was 299 to 300 °C.
As to `CNC(=O)Nc1cc(C(C)(C)C)on1`, the melting point lay within 187 to 188 °C.
As for `O=C(Nc1ccccc1C(=O)NCc1ccccc1)N[C@@H](Cc1ccc(NC(=O)c2c(Cl)cccc2Cl)cc1)C(=O)O`, the melting point was determined as 165 °C.
The molecule `O=C(O)c1cn(-n2cnnc2)c2nc(Cl)c(F)cc2c1=O` registered a melting point of 230 °C.
For `CN1C(=O)C(Cl)=C(C#N)C1=O`, the melting point lay in the range of 141 to 143 °C.
On to `CCONC(CC)=C1C(=O)OC(CC)=C(Br)C1=O`, for which the melting point was 76.5 to 77.5 °C.
Turning to `COc1cc(C)c(C(=O)c2c(Cl)cncc2C(F)(F)F)c(OC)c1OC`, the melting point was 75 to 77 °C.
`C=C1Cc2c(n(-c3ccccc3)c3ncccc3c2=O)O1` came in with a melting point of 259 to 261 °C.
`O=C1NC(=O)C2(c3cc(Oc4ccc([N+](=O)[O-])cc4)c(Cl)cc3F)CCCCC12` (centres undefined): the melting point turned out to be 126 °C.
For `COc1cccc(OC)c1C(=O)NC(=S)NNC(=O)c1cnc2ccccc2c1`, the melting point fell in the range of 242 to 243 °C.
The value for `CNn1cc(-c2ccccc2)c2ccccc21` was 60 to 62 °C.
The value for `CC(C)=CCc1c(O)cc(O)cc1-c1cc2ccc(O)cc2o1` was 82 to 83 °C; that for `FC(F)(F)c1cc(-c2nnn[nH]2)cc(C(F)(F)F)c1` was 179 °C; that for `CC(C)Cn1cnc2c(N)nc3ccc(CCc4ccncc4)cc3c21` was 221 to 224 °C.
With `CC(CCc1cccc(OCCC(NC(=O)OCc2ccccc2)C(=O)O)c1)=NNC=NN` (centres undefined), the melting point fell in the range of 95 to 100 °C.
Take `CCC12CCC3C4=C(CC(OC)=CC4)C(C)CC3C1CCC2=O` (centres undefined): the melting point was in the range of 118 to 125 °C.
The molecule `CC(=O)Nc1ccc(C2=NC(C)(C)C(c3ccncc3)C2)cc1` (centres undefined) had a melting point of 222 to 225 °C.
`Cc1ccc(S(=O)(=O)OCC2Cc3cccc(-c4c(Cl)cccc4Cl)c3O2)cc1` (centres undefined) yielded a melting point of 178 to 180 °C.
`CNc1nnc(-c2ccc3ncn(-c4ccc(SC)cc4)c3c2)o1`: the melting point lay within 224 to 225 °C.
`Nn1cccc1C(=O)c1cccs1`: the melting point lay in the range of 81 to 82 °C.
The value for `COc1ccc(C(=O)SC[C@@H](C)C(=O)N2CCC[C@H]2C(=O)O)cc1` was 140 to 141 °C.
In the case of `O=C(COCc1cccs1)C12CC3CC(CC(C3)C1)C2`, the melting point lay in the range of 57.2 to 58.3 °C.
Regarding `CSc1cc2c(cc1C(F)(F)F)N(C(=O)Nc1ccc(C(=O)O)cc1)CC2`, the melting point was > 200 °C.
Molecule `O=S(=O)(NCC(O)(c1ccccc1)c1ccc(OCc2ccccc2)cc1)c1ccccc1` (centres undefined) had a melting point of 148 to 149 °C.
`O=c1[nH]c2cc(Cl)c(Cl)cc2n1CCCBr` had a melting point of 198 °C.
For `CC(C)c1cccc(-n2cnc(CO)c2)c1`, the melting point lay within 76 to 77 °C.
Molecule `O=C1OC(CCCCN2CCN(c3ccccc3)CC2)CN1c1ccccc1` (centres undefined) registered a melting point of 83 to 85 °C.
The value for `CCCCCCCCCCCCCCCCCCNC(=O)OCC(CO)NC(=O)OC(C)(C)C` (centres undefined) was 73 to 75 °C.
Molecule `N#Cc1ccc(Oc2ccc3ccc(Oc4ccc(C#N)c(C#N)c4)cc3c2)cc1C#N` yielded a melting point of 201 to 204 °C.
The same measure for `CCON=C(C(C)=NO)c1ccc(OC(C)c2ccc(Cl)cc2)cc1` (centres undefined): 132 to 134 °C; for `Cn1cnc(COc2ccc(-c3cc(-c4nc(C(C)(C)C)[nH]c4-c4ccccn4)ccn3)cc2)c1`: 156 °C.
The value for `C#CCN1CCN(c2c(Cl)cc3c(=O)c(C(=O)O)cn4c3c2CCC4C)CC1` (centres undefined) was 211 to 213 °C; that for `CCOc1cc2oc(=O)c3c(c2cc1OCC)CCN(CCN1CC2CCC(CC2)C1)C3` was 132 to 134 °C; that for `O=C(NC(=O)c1ccccc1Cl)Nc1cc(Cl)c(OC(F)(F)C(F)Cl)cc1Cl` (centres undefined) was 158 to 160 °C.
Molecule `CC(Cc1c[nH]c2ccccc12)(NC(=O)OC1C2CC3CC(C2)CC1C3)C(=O)NCC(CCC(=O)O)c1ccccc1` (centres undefined) yielded a melting point of 117 to 122 °C.
With `C[C@@H](N)CN(c1ccccn1)S(=O)(=O)O`, the melting point was 176 to 179 °C.
The value for `COC(=O)c1csc2nc(N)sc12` was 221 to 223 °C; that for `CCCc1nc2c(N)nc3cc(OC4CCOC4)ccc3c2n1CC(C)C` (centres undefined) was 178 to 182 °C.
Regarding `CN(C(CCn1c(=O)cc(C(F)(F)F)[nH]c1=O)C(=O)NO)S(=O)(=O)c1ccc(Oc2cccc(Cl)c2)cc1` (centres undefined), the melting point lay in the range of 168 to 169 °C.
Regarding `CCCOc1ccc(-c2csc(-c3ccccc3Cl)c2CC(=O)N=C(N)N)cc1`, the melting point was in the range of 111 to 113 °C.
As for `CC1Sc2c(C(=O)O)c(=O)c3cc(F)c(N4CCC(N(C)C)C4)c(Cl)c3n21` (centres undefined), the melting point was 161 to 162 °C.
`CCOC(=O)c1cc(C#N)c(C=O)nc1Nc1ccccc1` displayed a melting point of 165 to 167 °C.
`COc1ccc(-c2sc3cc(O)ccc3c2Oc2ccc(OCCN3CCCCC3)cc2)cc1`: the melting point worked out at 157 °C.
In the case of `COCCOc1ccc2c(C(c3cccc(NC(=O)OCc4ccccc4)c3C)C(C)[N+](=O)[O-])c[nH]c2c1` (centres undefined), the melting point was 140 °C.
Molecule `CC(c1oc2ccccc2c(=O)c1-c1cccc(F)c1)n1nc(-c2csc3ccccc23)c2c(N)ncnc21` (centres undefined) came in with a melting point of 226 to 229 °C.
The value for `Cc1ccc(Oc2ccncc2N)cn1` was 74 to 79 °C; that for `CC(C)(C)N1OC(c2ccccc2)(N2CCOCC2)c2cc(Cl)ccc21` (centres undefined) was 130 to 132 °C; that for `COC(=O)C(=CNc1ccc(O)cc1)C(=O)C=Cc1ccc2ccccc2c1` was 191 to 192 °C.
`Cn1c(-c2ccccn2)cc2onc(-c3ccccc3)c2c1=O` displayed a melting point of 160 to 162 °C.
`NC(=O)c1ncn2c1NCC=C2c1cccc(C(F)(F)F)c1` had a melting point of 192 to 194 °C.
`CCC(N1CCC(Oc2c(F)c(F)c(F)c(F)c2F)CC1)n1c(=O)[nH]c2ccccc21` (centres undefined) displayed a melting point of 117 to 120 °C.
In the case of `CCCNC(=O)C(C#N)(CC)c1ccccc1` (centres undefined), the melting point was in the range of 55 to 56 °C.
The molecule `N#CCCNC(=O)C1=CC(CF)(CF)Oc2ccc([N+](=O)[O-])cc21` showed a melting point of 173 to 174 °C.
For the molecule `CS(=O)(=O)c1ccc(C(CC2CCCC2)C(=O)Nc2nccs2)cc1[N+](=O)[O-]` (centres undefined), the melting point is 121 to 124 °C.
The same measure for `CCOC(=O)CCCCOc1ccc([N+](=O)[O-])c(C=C2NC(=O)NC2=O)c1`: 127 to 129 °C; for `O=S(=O)(c1cccs1)N(CC1CC1)c1cccc2cc(-c3ncc(CCl)s3)[nH]c12`: 135 °C; for `CC(C)c1ccc(C2NCCc3c2[nH]c2ccccc32)cc1` (centres undefined): 146 °C.
As for `CN(C(N)=O)c1ccc(C(O)(C(F)(F)F)C(F)(F)F)cc1`, the melting point is 181 to 184 °C.
The molecule `CC(C)(C)OC(=O)Cn1c(-c2ccccn2)nc2cccnc21` had a melting point of 124 to 126 °C.
The same measure for `O=C1C(I)=CC2COC1O2` (centres undefined): 66 to 67 °C; for `O=C1CCCC2=C1C(c1ccc(F)c(Br)c1)C1=C(CCCC1)N2` (centres undefined): 254 to 257 °C; for `CC(=O)OCc1csc(Nc2ccc(Br)cn2)n1`: 201 to 202 °C.
The value for `CCOC(=O)n1c(SCc2nccc(SCCN3CCOCC3)c2C)nc2ccccc21` was 145 to 147 °C; that for `CC1Cc2cccc(-c3ccccc3)c2C1=O` (centres undefined) was 81.5 to 83 °C.
The same measure for `CN(C)c1ccc(C(=O)CCCCC2CCN(Cc3ccccc3)CC2)cc1`: 121 to 123 °C; for `CCn1nc(C(=O)OCc2ccccc2)cc(Nc2cnccc2C)c1=O`: 137 to 138 °C; for `CN1C(=O)[C@H](NC(=O)/C=C/c2cccc(Cl)c2)N=C(c2ccccc2)c2ccccc21`: 229 to 231 °C.
Molecule `COC(=S)NCc1cn(-c2ccc(N3CCC(=O)CC3)c(F)c2)nn1` returned a melting point of 145 to 147 °C.
`CNc1nc(C(C)c2ccc(-c3ccccc3)c(F)c2)c(C(=O)NO)s1` (centres undefined): the melting point came out at 118 °C.
The same measure for `CC1=CC(C)(N)NC=C1` (centres undefined): 79.5 to 81 °C.
